According to PMC7782499, “Progerinin, an optimized progerin-lamin A binding inhibitor, ameliorates premature senescence phenotypes of Hutchinson-Gilford progeria syndrome” (Communications Biology, 2021):

What was measured:
Sprague-Dawley rats = assay: Single oral gavage dose toxicity study in SD rats; type: in vivo; settings: for Mortality: Day 1-7; for External Gross Observation: No gross findings (animals of 3) / Internal Gross Observation: No gross findings (animals of 3): Sprague-Dawley, 7 day
Description: The protocol and procedures involving the care and use of animals in this study was reviewed and approved by IACUC of QuBEST BIO prior to conduct (Approval no.: QBSIACUC-A18122). During the study, the care and use of animals will be conducted in accordance with all applicable guidelines of Animal Welfare Act. Eleven specific pathogen-gree Sprague-Dawley rats (~6 weeks old) were obtained from SAMTAKO Ltd. (Osan, Korea) and nine rats were used for the study. […] Food was withheld for a further 3–4 h after dosing. Each dose was based on the most recent body weight of each animal and the dose volume was […]. The dosing day was designated as Day 1. All animals were observed twice daily for mortality and moribundity during the study. A clinical observation was performed for all animals at the time of dosing and approximately 1, 2, and 4 h post-dose on dosing day, and once daily during 7-day observation period. Observations were included, but are not limited to, changes in the skin, fur, eyes and mucous membrane; respiratory, circulatory, autonomic and central nervous system function; somatomotor activity and behavior patterns. Individual body weights were measured for all animals on the day of animal receipt, randomization, prior to dosing start (Day 1) and study period (Days 4 and 7). Those animals survived on completion of the 7-day observation period were weighed body weight prior to necropsy and CO2 inhalation anesthesia and exsanguinated from the abdominal aorta. In order to avoid autolytic change, a complete gross pathology examination of the carcass was performed as soon as possible after euthanasia of all animals. Necropsy was consisted of an external examination, including identification of all clinically recorded lesions, as well as a detailed internal examination. Toxicity studies were performed by QuBEST BIO Co., Ltd (Yongin, Korea).
The objective of this study was to investigate the potential acute toxicity or approximate lethal dose of SLC-D011 following a single oral gavage administration to the SD rats.
The study group is detailed in Text Table 1.
Text Table 1. Study Group
The following parameters were evaluated: mortality (twice daily), clinical signs (1, 2, and 4 ho urs post-dose on dosing day, and once daily during 7-day period), body weights (on Days 1, 4 and 7), and […]
Mortality and Clinical Observation […]
The oral gavage route was selected since it is the intended route of administration in humans. […]
The study groups and dose level were assigned as below after consultation with the Sponsor. […]
After overnight fasting (approximately 16 hours, food but not water should be withheld overnight), test article formulations were dosed using a plastic disposable feeding needle attached to a plastic disposable syringe. Food was withheld for a further 3~4 hours after dosing. Each dose was based on the most recent body weight of each animal and the dose volume was 10 mL/kg. The dosing day was designated as study Day 1.
All animals were observed twice daily [once (am) on weekend and holiday] for mortality and moribundity during the study.
A clinical observation was performed for all animals at the time of dosing and approximately 1, 2 and 4 hours post-dose on dosing day, and once daily during 7-day observation period.

CYP3A4 = CYP3A4 (Homo sapiens, UniProt P08684); assay: CYP inhibition, CYP3A4; type: in vitro ADME
Sequence of CYP3A4 (P08684 whole entry): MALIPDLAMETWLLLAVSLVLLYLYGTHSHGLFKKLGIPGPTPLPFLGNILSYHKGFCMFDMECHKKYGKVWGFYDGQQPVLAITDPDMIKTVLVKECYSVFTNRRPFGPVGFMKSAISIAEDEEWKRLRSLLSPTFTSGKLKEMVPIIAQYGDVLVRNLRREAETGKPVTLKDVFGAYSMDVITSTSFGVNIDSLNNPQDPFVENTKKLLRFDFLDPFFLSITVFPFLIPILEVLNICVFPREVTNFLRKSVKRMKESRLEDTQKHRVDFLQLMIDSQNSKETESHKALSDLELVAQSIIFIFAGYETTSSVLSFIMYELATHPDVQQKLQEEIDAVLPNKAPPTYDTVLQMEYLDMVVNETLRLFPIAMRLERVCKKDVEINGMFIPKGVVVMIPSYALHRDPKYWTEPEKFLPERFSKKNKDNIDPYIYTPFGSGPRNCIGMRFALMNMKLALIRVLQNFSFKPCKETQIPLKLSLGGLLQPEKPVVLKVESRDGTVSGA
Description: At pre-set time-points, blood concentration of JH4 was determined by LC-MS/MS analysis[22],[23]. Other chemicals were also tested using similar protocol. In vitro ADME studies (plasma protein binding, CYP inhibition, microsomal stability, plasma stability, and hERG inhibition) were performed by New Drug Development Center (Daegu, Korea) using standard protocols[24],[25].

[1] = female, rat, in vivo, 500 mg/kg

## CC1(C)Oc2cc3oc(=O)ccc3cc2C[C@@H]1OC/C=C/c1ccccc1 [SLC-D011]
Sprague-Dawley rats; female rats, 500 mg/kg
  Mortality: 0/3
Sprague-Dawley rats; female rats, 2,000 mg/kg
  Mortality: 0/3
Sprague-Dawley rats; [1]
  External Gross Observation: No gross findings (animals of 3): 3
  Internal Gross Observation: No gross findings (animals of 3): 3
Sprague-Dawley rats; male rats, 500 mg/kg
  Mortality: 0/3
Sprague-Dawley rats; male rats, 2,000 mg/kg
  Mortality: 0/3
Sprague-Dawley rats; male, rat, in vivo, 500 mg/kg
  External Gross Observation: No gross findings (animals of 3): 3
  Internal Gross Observation: No gross findings (animals of 3): 3
Sprague-Dawley rats; rat, in vivo, 500 mg/kg
  Clinical Observation: Appears Normal
Sprague-Dawley rats; single oral gavage at 500 and 2,000 mg/kg
  Tolerability: well tolerated
Sprague-Dawley rats; single oral gavage, both sexes
  Approximate lethal dose (ALD): > 2,000 mg/kg
CYP3A4
  CYP inhibition: 92.5
